# Test results published in paper PMC11124822, “Discovery and Anticancer Screening of Novel Oxindole-Based Derivative Bearing Pyridyl Group as Potent and Selective Dual FLT3/CDK2 Kinase Inhibitor” (Pharmaceuticals, 2024).
# Legend:
# [1] = tested on: SF-539; test: NCI-60 antiproliferative screen (SRB); format: cell-based, human; settings: Homo sapiens; 10 µM single dose, 48 h; SF-539 (CNS); read-out: Growth inhibition (%)
# [2] = tested on: OVCAR-3; test: NCI-60 antiproliferative screen (SRB); format: cell-based, human; settings: Homo sapiens; 10 µM single dose, 48 h; OVCAR-3 (Ovarian); read-out: Growth inhibition (%)
# [3] = tested on: MDA-MB-468; test: NCI-60 antiproliferative screen (SRB); format: cell-based, human; settings: Homo sapiens; 10 µM single dose, 48 h; MDA-MB-468 (Breast); read-out: Growth inhibition (%)
# [4] = tested on: HL-60(TB); test: NCI-60 antiproliferative screen (SRB); format: cell-based, human; settings: Homo sapiens; 10 µM single dose, 48 h; HL-60(TB) (Leukemia); read-out: Growth inhibition (%)
# [5] = tested on: SW-620; test: NCI-60 antiproliferative screen (SRB); format: cell-based, human; settings: Homo sapiens; 10 µM single dose, 48 h; SW-620 (Colon); read-out: Growth inhibition (%)
# [6] = tested on: HCT-15; test: NCI-60 antiproliferative screen (SRB); format: cell-based, human; settings: Homo sapiens; 10 µM single dose, 48 h; HCT-15 (Colon); read-out: Growth inhibition (%)
# [7] = tested on: SNB-75; test: NCI-60 antiproliferative screen (SRB); settings: Homo sapiens, SNB-75, 48 h, read-out: Growth inhibition (%)
# [8] = tested on: MDA-MB-435; test: NCI-60 antiproliferative screen (SRB); format: cell-based, human; settings: Homo sapiens; 10 µM single dose, 48 h; MDA-MB-435 (Melanoma); read-out: Growth inhibition (%)
# [9] = tested on: NCI-H226; test: NCI-60 antiproliferative screen (SRB); format: cell-based, human; settings: Homo sapiens; 10 µM single dose, 48 h; NCI-H226 (NSCLC); read-out: Growth inhibition (%)
# [10] = tested on: BT-549; test: NCI-60 antiproliferative screen (SRB); format: cell-based, human; settings: Homo sapiens; 10 µM single dose, 48 h; BT-549 (Breast); read-out: Growth inhibition (%)
# [11] = tested on: LOX IMVI; test: NCI-60 antiproliferative screen (SRB); format: cell-based, human; settings: Homo sapiens; 10 µM single dose, 48 h; LOX IMVI (Melanoma); read-out: Growth inhibition (%)
# [12] = tested on: SN12C; test: NCI-60 antiproliferative screen (SRB); format: cell-based, human; settings: Homo sapiens; 10 µM single dose, 48 h; SN12C (Renal); read-out: Growth inhibition (%)
# [13] = tested on: SF-295; test: NCI-60 antiproliferative screen (SRB); format: cell-based, human; settings: Homo sapiens; 10 µM single dose, 48 h; SF-295 (CNS); read-out: Growth inhibition (%)
# [14] = tested on: MALME-3M; test: NCI-60 antiproliferative screen (SRB); format: cell-based, human; settings: Homo sapiens; 10 µM single dose, 48 h; MALME-3M (Melanoma); read-out: Growth inhibition (%)
# [15] = tested on: HT29; test: NCI-60 antiproliferative screen (SRB); format: cell-based, human; settings: Homo sapiens, HT-29; 10 µM single dose, 48 h; HT29 (Colon); read-out: Growth inhibition (%)
# [16] = tested on: NCI-60 human cancer cell lines; test: NCI-60 screen, full panel summary; format: cell-based; settings: 10 µM single dose; for Mean Growth Percent: all NCI-60 cell lines
# Description: In a comprehensive test, compounds were assayed at a single dose concentration (10^−5 M) in the full panel of NCI-60 cancer cell lines.
# [17] = tested on: 786-0; test: NCI-60 antiproliferative screen (SRB); format: cell-based, human; settings: Homo sapiens; 10 µM single dose, 48 h; 786-0 (Renal); read-out: Growth inhibition (%)
# [18] = tested on: A549/ATCC; test: NCI-60 antiproliferative screen (SRB); format: cell-based, human; settings: Homo sapiens; 10 µM single dose, 48 h; A549/ATCC (NSCLC); read-out: Growth inhibition (%)
# [19] = tested on: HCC-2998; test: NCI-60 antiproliferative screen (SRB); format: cell-based, human; settings: Homo sapiens; 10 µM single dose, 48 h; HCC-2998 (Colon); read-out: Growth inhibition (%)
# [20] = tested on: DU-145; test: NCI-60 antiproliferative screen (SRB); format: cell-based, human; settings: Homo sapiens; 10 µM single dose, 48 h; DU-145 (Prostate); read-out: Growth inhibition (%)
# [21] = tested on: HCT-116; test: NCI-60 antiproliferative screen (SRB); format: cell-based, human; settings: Homo sapiens; 10 µM single dose, 48 h; HCT-116 (Colon); read-out: Growth inhibition (%)
# [22] = tested on: CAKI-1; test: NCI-60 antiproliferative screen (SRB); format: cell-based, human; settings: Homo sapiens; 10 µM single dose, 48 h; CAKI-1 (Renal); read-out: Growth inhibition (%)
# [23] = tested on: SK-MEL-2; test: NCI-60 antiproliferative screen (SRB); format: cell-based, human; settings: Homo sapiens; 10 µM single dose, 48 h; SK-MEL-2 (Melanoma); read-out: Growth inhibition (%)
# [24] = tested on: K-562; test: NCI-60 antiproliferative screen (SRB); format: cell-based, human; settings: Homo sapiens, K562; 10 µM single dose, 48 h; K-562 (Leukemia); read-out: Growth inhibition (%)
# [25] = tested on: PC-3; test: NCI-60 antiproliferative screen (SRB); format: cell-based, human; settings: Homo sapiens; 10 µM single dose, 48 h; PC-3 (Prostate); read-out: Growth inhibition (%)
# [26] = tested on: NCI-H322M; test: NCI-60 antiproliferative screen (SRB); format: cell-based, human; settings: Homo sapiens; 10 µM single dose, 48 h; NCI-H322M (NSCLC); read-out: Growth inhibition (%)
# [27] = tested on: OVCAR-8; test: NCI-60 antiproliferative screen (SRB); format: cell-based, human; settings: Homo sapiens; 10 µM single dose, 48 h; OVCAR-8 (Ovarian); read-out: Growth inhibition (%)
# [28] = tested on: MOLT-4; test: NCI-60 antiproliferative screen (SRB); format: cell-based; settings: Homo sapiens; 10 µM single dose, 48 h; MOLT-4 (Leukemia); read-out: Growth inhibition (%)
# [29] = tested on: HS 578T; test: NCI-60 antiproliferative screen (SRB); format: cell-based, human; settings: Homo sapiens; 10 µM single dose, 48 h; HS 578T (Breast); read-out: Growth inhibition (%)
SMILES,inhibition at 10 µM [1] [%],inhibition at 10 µM [2] [%],inhibition at 10 µM [3] [%],inhibition at 10 µM [4] [%],inhibition at 10 µM [6] [%],inhibition at 10 µM [7] [%],inhibition at 10 µM [8] [%],inhibition at 10 µM [9] [%],inhibition at 10 µM [10] [%],inhibition at 10 µM [12] [%],inhibition at 10 µM [13] [%],inhibition at 10 µM [14] [%],inhibition at 10 µM [15] [%],Positive Cytostatic Effect (cell lines with percent growth from 0 to 50 / total number of cell lines) [16],Positive Cytotoxic Effect (cell lines with percent growth of <0 / total number of cell lines) [16],Sensitive/Total Cell Lines [16],The Most Sensitive Cell Line [16],Mean Growth Percent [16],inhibition at 10 µM [17] [%],inhibition at 10 µM [18] [%],further results
"O=C1Nc2ccc(F)cc2C1=Cc1ccc(OCc2ccccn2)cc1 (mixture of isomers) [Compound 5f, (E/Z)-5-fluoro-3-[4-(pyridin-2-ylmethoxy)benzylidene]indolin-2-one]",47.7,8.17,28.2,13.9,10.7,10.2,-2.77,6.67,13.2,4.04,1.98,7.24,-0.51,3/59,0/59,3/59,NCI-H522,13.74,16.6,-1.04,inhibition at 10 µM [5]: -2.79%; inhibition at 10 µM [11]: 12.6%; inhibition at 10 µM [19]: -20.2%; inhibition at 10 µM [20]: 7.73%; inhibition at 10 µM [21]: 57.8%; inhibition at 10 µM [22]: 33.5%; inhibition at 10 µM [23]: -3.45%; inhibition at 10 µM [24]: 14.6%; inhibition at 10 µM [25]: 8.7%; inhibition at 10 µM [26]: 3.29%; inhibition at 10 µM [27]: 3.52%; inhibition at 10 µM [28]: 3.55%; inhibition at 10 µM [29]: 21.9%
"O=C1Nc2ccc(Cl)cc2C1=Cc1ccc(OCc2ccccn2)cc1 (mixture of isomers) [Compound 5g, (E/Z)-5-Chloro-3-[4-(pyridin-2-ylmethoxy)benzylidene] indolin-2-one]",26.5,42.7,49.6,15,64.3,-12.6,23.1,98.7,21.2,55.5,15.5,61.5,32.5,17/59,1/59,18/59,OVCAR-4,38.63,74.3,35.6,inhibition at 10 µM [5]: 52.5%; inhibition at 10 µM [11]: 43.5%; number of cell lines with cytostatic effects [16]: 17; number of cell lines with cytotoxic effects [16]: 1; inhibition at 10 µM [19]: -4.51%; inhibition at 10 µM [20]: 12.2%; inhibition at 10 µM [21]: 71.5%; inhibition at 10 µM [22]: 38.4%; inhibition at 10 µM [23]: -11.4%; inhibition at 10 µM [24]: 49%; inhibition at 10 µM [25]: 37.9%; inhibition at 10 µM [26]: 35.8%; inhibition at 10 µM [27]: 54.1%; inhibition at 10 µM [28]: 53.1%; inhibition at 10 µM [29]: 85.2%
"O=C1Nc2ccccc2C1=Cc1ccc(OCc2ccccn2)cc1 (mixture of isomers) [Compound 5e, (E/Z)-3-[4-(Pyridin-2-ylmethoxy]benzylidene) indolin-2-one]",35.3,18.2,61.7,38.8,45.9,34.7,10.1,40.8,41.2,47.7,27,25.4,16.2,11/56,0/56,11/56,HOP-92,33.37,18,29.2,inhibition at 10 µM [19]: 1.6%; inhibition at 10 µM [20]: 20.3%; inhibition at 10 µM [21]: 41.1%; inhibition at 10 µM [22]: 40.8%; inhibition at 10 µM [23]: -12.2%; inhibition at 10 µM [24]: 59.2%; inhibition at 10 µM [25]: 44.3%; inhibition at 10 µM [26]: 29.5%; inhibition at 10 µM [27]: 29.7%; inhibition at 10 µM [28]: 62.5%
